Assay results as given in patent US20240150377A1, “MODULATORS OF CYSTIC FIBROSIS TRANSMEMBRANE CONDUCTANCE REGULATOR” (VERTEX PHARMACEUTICALS INCORPORATED, priority 2020, published 2024).
Like-named read-outs stand apart in the source and are kept apart here.

Molecular target: CFTR (Homo sapiens, UniProt P13569)
Experiment: Membrane potential dye, Enteroid Assay A
Assay type: cell-based
Details: for Ent. A Max Activity: chloride transport as % of triple combination control (Enteroid Assay A); for EC50: human enteroid cells, 18-24 hours, acute 10 μM forskolin and 300 nM ivacaftor, read-out: Ent. A EC50
Experimental: Base medium (ADF+++) consisted of Advanced DMEM/Ham's F12, 2 mM Glutamax, 10 mM HEPES, […] penicillin/streptomycin.
Intestinal enteroid maintenance medium (IEMM) consisted of ADF+++, 1× B27 supplement, 1× N2 supplement, 1.25 mM N-acetyl cysteine, 10 mM Nicotinamide, 50 ng/mL hEGF, 10 nM Gastrin, 1 μg/mL hR-spondin-1, 100 ng/mL hNoggin, TGF-b type 1 inhibitor A-83-01, 100 μg/mL Primocin, 10 μM P38 MAPK inhibitor SB202190.
Bath 1 Buffer consisted of 1 mM MgCl2, 160 mM NaCl, 4.5 mM KCl, 10 mM HEPES, 10 mM Glucose, 2 mM CaCl2).
Chloride Free Buffer consisted of 1 mM Magnesium Gluconate, 2 mM Calcium Gluconate, 4.5 mM Potassium Gluconate, 160 mM Sodium Gluconate, 10 mM HEPES, 10 mM Glucose.
BathI Dye Solution consisted of Bath 1 Buffer, 0.04% Pluronic F127, 20 μM Methyl Oxonol, 30 μM CaCCinh-A01, 30 μM Chicago Sky Blue.
Chloride Free Dye Solution consisted of Chloride Free Buffer, 0.04% Pluronic F127, 20 μM Methyl Oxonol, 30 μM CaCCinh-A01, 30 μM Chicago Sky Blue.
Chloride Free Dye Stimulation Solution consisted of Chloride Free Dye Solution, 10 μM forskolin, 100 μM IBMX, and 300 nM Compound III.
Human intestinal epithelial enteroid cells were obtained from the Hubrecht Institute for Developmental Biology and Stem Cell Research, Utrecht, The Netherlands and expanded in T-Flasks as previously described (Dekkers J F, Wiegerinck C L, de Jonge H R, Bronsveld I, Janssens H M, de Winter-de Groot K M, Brandsma A M, de Jong N W M, Bijvelds M J C, Scholte B J, Nieuwenhuis E E S, van den Brink S, Clevers H, van der Ent C K, Middendorp S and M Beekman J M. A functional CFTR assay using primary cystic fibrosis intestinal organoids. Nat Med. 2013 July;19(7):939-45.).
3. Enteroid Cell Harvesting and Seeding
Cells were recovered in cell recovery solution, collected by centrifugation at 650 rpm for 5 min at 4° C., resuspended in TrypLE and incubated for 5 min at 37° C. Cells were then collected by centrifugation at 650 rpm for 5 min at 4° C. and resuspended in IEMM containing 10 μM ROCK inhibitor (RI). The cell suspension was passed through a 40 μm cell strainer and resuspended at 1×10^6 cells/mL in IEMM containing 10 μM RI. Cells were seeded at 5000 cells/well into multi-well plates and incubated for overnight at 37° C., 95% humidity and 5% CO2 prior to assay.
4. Membrane Potential Dye, Enteroid Assay A
Enteroid cells were incubated with test compound in IEMM for 18-24 hours at 37° C., 95% humidity and 5% CO2. […] Briefly, cells were washed 5 times in Bath 1 Buffer. Bath 1 Dye Solution was added, and the cells were incubated for 25 min at room temperature. Following dye incubation, cells were washed 3 times in Chloride Free Dye Solution. Chloride transport was initiated by addition of Chloride Free Dye Stimulation Solution and the fluorescence signal was read for 15 min. […] Chloride transport was then expressed as a percentage of the chloride transport following treatment with 3 μM N-[(6-amino-2-pyridyl)sulfonyl]-6-(3-fluoro-5-isobutoxy-phenyl)-2-[(4S)-2,2,4-trimethylpyrrolidin-1-yl]pyridine-3-carboxamide, 3 μM (R)-1-(2,2-difluorobenzo[d][1,3]dioxol-5-yl)-N-(1-(2,3-dihydroxypropyl)-6-fluoro-2-(1-hydroxy-2-methylpropan-2-yl)-1H-indol-5-yl)cyclopropanecarboxamide and 300 nM acute N-[2,4-bis(1,1-dimethylethyl)-5-hydroxyphenyl]-1,4-dihydro-4-oxoquinoline-3-carboxamide triple combination control (% Activity).

CFTR, sequence (P13569 with tags, fused parts or gaps DEL508-508): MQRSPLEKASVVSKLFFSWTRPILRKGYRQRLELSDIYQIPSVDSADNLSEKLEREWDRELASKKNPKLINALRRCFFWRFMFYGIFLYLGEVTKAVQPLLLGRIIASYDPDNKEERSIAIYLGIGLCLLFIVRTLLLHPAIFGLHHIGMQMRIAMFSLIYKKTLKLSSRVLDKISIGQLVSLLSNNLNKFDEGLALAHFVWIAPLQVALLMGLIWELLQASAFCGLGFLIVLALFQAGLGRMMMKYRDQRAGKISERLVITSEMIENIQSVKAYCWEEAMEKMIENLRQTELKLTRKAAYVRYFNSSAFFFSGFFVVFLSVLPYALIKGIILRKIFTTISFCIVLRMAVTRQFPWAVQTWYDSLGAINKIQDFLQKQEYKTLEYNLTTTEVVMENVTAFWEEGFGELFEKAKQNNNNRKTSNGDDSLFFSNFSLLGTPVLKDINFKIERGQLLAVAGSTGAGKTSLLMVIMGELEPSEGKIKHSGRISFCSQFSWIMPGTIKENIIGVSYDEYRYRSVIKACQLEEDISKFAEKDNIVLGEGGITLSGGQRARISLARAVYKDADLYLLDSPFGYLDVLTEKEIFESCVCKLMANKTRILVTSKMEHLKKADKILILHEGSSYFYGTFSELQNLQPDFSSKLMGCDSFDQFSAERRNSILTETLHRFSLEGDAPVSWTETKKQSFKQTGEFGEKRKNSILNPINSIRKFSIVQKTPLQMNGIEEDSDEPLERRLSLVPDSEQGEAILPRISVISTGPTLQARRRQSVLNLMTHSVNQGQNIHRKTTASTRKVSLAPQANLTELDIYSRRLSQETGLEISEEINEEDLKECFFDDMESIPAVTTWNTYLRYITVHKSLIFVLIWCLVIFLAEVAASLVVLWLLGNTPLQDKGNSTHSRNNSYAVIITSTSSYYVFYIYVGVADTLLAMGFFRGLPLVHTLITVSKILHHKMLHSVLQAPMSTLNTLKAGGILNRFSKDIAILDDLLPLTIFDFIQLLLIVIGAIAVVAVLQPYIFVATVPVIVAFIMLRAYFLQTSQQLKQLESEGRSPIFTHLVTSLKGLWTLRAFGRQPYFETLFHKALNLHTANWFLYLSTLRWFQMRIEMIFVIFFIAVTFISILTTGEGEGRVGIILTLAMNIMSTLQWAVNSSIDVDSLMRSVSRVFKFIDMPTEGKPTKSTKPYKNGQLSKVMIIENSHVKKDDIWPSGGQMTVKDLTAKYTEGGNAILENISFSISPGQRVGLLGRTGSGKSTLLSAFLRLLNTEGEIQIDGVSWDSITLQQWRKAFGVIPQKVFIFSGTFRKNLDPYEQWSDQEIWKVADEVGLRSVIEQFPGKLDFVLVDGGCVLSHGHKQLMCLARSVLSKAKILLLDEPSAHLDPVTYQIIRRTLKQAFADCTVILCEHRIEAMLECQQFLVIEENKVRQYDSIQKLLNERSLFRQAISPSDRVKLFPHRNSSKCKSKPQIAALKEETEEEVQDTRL

Compound | Ent. A Max Activity (Table 6) | EC50 (Table 6) | Ent. A Max Activity (Table 7) | EC50 (Table 7)
Cc1cccc(C)c1-c1cc2nc(n1)NS(=O)(=O)c1cccc(c1)C(=O)N(Cc1ccccc1)C(C(=O)NC(C)(C)C)CO2 (stereo not drawn) [Compound 44, 12-benzyl-N-tert-butyl-6-(2,6-dimethylphenyl)-2,2,13-trioxo-9-oxa-2λ^6-thia-3,5,12,19-tetrazatricyclo[12.3.1.14,8]nonadeca-1(18),4(19),5,7,14,16-hexaene-11-carboxamide] | ++ (++ is 30-60%) | 3000 to 30000 nM | – | –
Cc1cccc(C)c1-c1cc2nc(n1)NS(=O)(=O)c1cccc(c1)CN(C(=O)CC1CCOCC1)[C@H](CC(C)C)CO2 [Compound 45, (11R)-6-(2,6-Dimethylphenyl)-11-(2-methylpropyl)-12-[2-(oxan-4-yl)acetyl]-9-oxa-2λ^6-thia-3,5,12,19-tetraazatricyclo[12.3.1.14,8]nonadeca-1(17),4,6,8(19),14(18),15-hexaene-2,2-dione] | – | – | + (+ is <30%) | –
Cc1cccc(C)c1-c1cc2nc(n1)NS(=O)(=O)c1cccc(c1)C(=O)N(CCOCc1ccccc1)[C@H](CC(C)C)CO2 [Compound 81, (11R)-12-[2-(Benzyloxy)ethyl]-6-(2,6-dimethylphenyl)-11-(2-methylpropyl)-9-oxa-2λ^6-thia-3,5,12,19-tetraazatricyclo[12.3.1.14,8]nonadeca-1(17),4,6,8(19),14(18),15-hexaene-2,2,13-trione] | +++ (+++ is >60%) | < 1000 nM | – | –
Cc1cccc(C)c1-c1cc2nc(n1)NS(=O)(=O)c1cccc(c1)C(=O)N(Cc1ccc(C3CCN(C)CC3)cc1)[C@H](CC(C)C)CO2 [Compound 87, (11R)-6-(2,6-Dimethylphenyl)-11-isobutyl-12-[[4-(1-methyl-4-piperidyl)phenyl]methyl]-2,2-dioxo-9-oxa-2λ^6-thia-3,5,12,19-tetrazatricyclo[12.3.1.14,8]nonadeca-1(18),4(19),5,7,14,16-hexaen-13-one] | +++ (+++ is >60%) | < 1000 nM | – | –
Cc1cccc(C)c1-c1cc2nc(n1)NS(=O)(=O)c1cccc(c1)C(=O)N(CC1CC3(CCN(C)CC3)C1)[C@H](CC(C)C)CO2 [Compound 89, (11R)-6-(2,6-Dimethylphenyl)-11-isobutyl-12-[(7-methyl-7-azaspiro[3.5]nonan-2-yl)methyl]-2,2-dioxo-9-oxa-2λ^6-thia-3,5,12,19-tetrazatricyclo[12.3.1.14,8]nonadeca-1(18),4(19),5,7,14,16-hexaen-13-one] | – | – | +++ (+++ is >60%) | < 1000 nM
CC(=O)N1CCC2(CC1)CC(CN1C(=O)c3cccc(c3)S(=O)(=O)Nc3nc(cc(-c4c(C)cccc4C)n3)OC[C@H]1CC(C)C)C2 [Compound 90, (11R)-12-[(7-Acetyl-7-azaspiro[3.5]nonan-2-yl)methyl]-6-(2,6-dimethylphenyl)-11-isobutyl-2,2-dioxo-9-oxa-2λ^6-thia-3,5,12,19-tetrazatricyclo[12.3.1.14,8]nonadeca-1(18),4(19),5,7,14,16-hexaen-13-one] | – | – | +++ (+++ is >60%) | < 1000 nM

The remaining lines, values ahead:

Ent. A Max Activity (Table 6) | EC50 (Table 6) | Ent. A Max Activity (Table 7) | EC50 (Table 7) | Compound
+++ (+++ is >60%) | < 1000 nM | – | – | Cc1cccc(C)c1-c1cc2nc(n1)NS(=O)(=O)c1cccc(c1)C(=O)N(C[C@@H](O)CO)[C@H](CC(C)C)CO2 [Compound 38, (11R)-12-[(2R)-2,3-Dihydroxypropyl]-6-(2,6-dimethylphenyl)-11-(2-methylpropyl)-9-oxa-2λ^6-thia-3,5,12,19-tetraazatricyclo[12.3.1.14,8]nonadeca-1(17),4(19),5,7,14(18),15-hexaene-2,2,13-trione]
+++ (+++ is >60%) | < 1000 nM | – | – | Cc1cccc(C)c1-c1cc2nc(n1)NS(=O)(=O)c1cccc(c1)C(=O)N(Cc1cc3n(n1)CCNC3=O)[C@H](CC(C)C)CO2 [Compound 41, (11R)-6-(2,6-dimethylphenyl)-11-isobutyl-2,2-dioxo-12-[(4-oxo-6,7-dihydro-5H-pyrazolo[1,5-a]pyrazin-2-yl)methyl]-9-oxa-2λ^6-thia-3,5,12,19-tetrazatricyclo[12.3.1.14,8]nonadeca-1(18),4(19),5,7,14,16-hexaen-13-one]
+++ (+++ is >60%) | < 1000 nM | – | – | COc1ccnc(CN2C(=O)c3cccc(c3)S(=O)(=O)Nc3nc(cc(-c4c(C)cccc4C)n3)OC[C@H]2CC(C)C)c1 [Compound 82, (11R)-6-(2,6-Dimethylphenyl)-11-isobutyl-12-[(4-methoxy-2-pyridyl)methyl]-2,2-dioxo-9-oxa-2λ^6-thia-3,5,12,19-tetrazatricyclo[12.3.1.14,8]nonadeca-1(18),4(19),5,7,14,16-hexaen-13-one]
+++ (+++ is >60%) | < 1000 nM | – | – | Cc1cccc(C)c1-c1cc2nc(n1)NS(=O)(=O)c1cccc(c1)C(=O)N(Cc1ccc(C3=CCN(C)CC3)cc1)[C@H](CC(C)C)CO2 [Compound 86, (11R)-6-(2,6-Dimethylphenyl)-11-isobutyl-12-[[4-(1-methyl-3,6-dihydro-2H-pyridin-4-yl)phenyl]methyl]-2,2-dioxo-9-oxa-2λ^6-thia-3,5,12,19-tetrazatricyclo[12.3.1.14,8]nonadeca-1(18),4(19),5,7,14,16-hexaen-13-one]
++ (++ is 30-60%) | 1000 to 3000 nM | – | – | Cc1cccc(C)c1-c1cc2nc(n1)NS(=O)(=O)c1cccc(c1)C(=O)N(Cc1ccc(P(C)(C)=O)cc1)[C@H](CC(C)C)CO2 [Compound 88, (11R)-6-(2,6-Dimethylphenyl)-12-[(4-dimethylphosphorylphenyl)methyl]-11-isobutyl-2,2-dioxo-9-oxa-2λ^6-thia-3,5,12,19-tetrazatricyclo[12.3.1.14,8]nonadeca-1(18),4(19),5,7,14,16-hexaen-13-one]
– | – | +++ (+++ is >60%) | < 1000 nM | CNC(=O)c1ccc(CN2C(=O)c3cccc(c3)S(=O)(=O)Nc3nc(cc(-c4c(C)cccc4C)n3)OC[C@H]2CC(C)C)cn1 [Compound 93, 5-{[(11R)-6-(2,6-dimethylphenyl)-11-(2-methylpropyl)-2,2,13-trioxo-9-oxa-2λ^6-thia-3,5,12,19-tetraazatricyclo[12.3.1.14,8]nonadeca-1(18),4(19),5,7,14,16-hexaen-12-yl]methyl}-N-methylpyridine-2-carboxamide]
– | – | +++ (+++ is >60%) | 1000 to 3000 nM | Cc1cccc(C)c1-c1cc2nc(n1)NS(=O)(=O)c1cccc(c1)C(=O)N(Cc1ccc(C(=O)O)nc1)[C@H](CC(C)C)CO2 [Compound 94, 5-{[(11R)-6-(2,6-dimethylphenyl)-11-(2-methylpropyl)-2,2,13-trioxo-9-oxa-2λ^6-thia-3,5,12,19-tetraazatricyclo[12.3.1.14,8]nonadeca-1(18),4(19),5,7,14,16-hexaen-12-yl]methyl}pyridine-2-carboxylic acid]
– | – | +++ (+++ is >60%) | < 1000 nM | COC(=O)c1ccc(CN2C(=O)c3cccc(c3)S(=O)(=O)Nc3nc(cc(-c4c(C)cccc4C)n3)OC[C@H]2CC(C)C)cn1 [Compound 95, Methyl 5-{[(11R)-6-(2,6-Dimethylphenyl)-11-(2-methylpropyl)-2,2,13-trioxo-9-oxa-2λ^6-thia-3,5,12,19-tetraazatricyclo[12.3.1.14,8]nonadeca-1(18),4(19),5,7,14,16-hexaen-12-yl]methyl}pyridine-2-carboxylate]
